Laboratory results reported in the supplement of paper PMC10307832.

How the values were obtained:
Assay in all cases: relative viability (nuclei count vs DMSO), 5 days (fraction); higher = more cells survive
NCI-H520 = tested on: NCI-H520
Method in brief: (§1)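 After 5 days of treatment, lung cancer cells in 1536-well plates were fixed and stained in a single step (final 0.05% Triton X-100, 1% formaldehyde, 1 ug/ml Hoechst) and their nuclei counted on 4× images. Treatment had been applied by pin tool the day after seeding as one drug alone or as a fixed anchor-drug dose with five library-drug doses (not always all listed) in √10 steps. Relative viability is the nuclei count of treated wells divided by that of vehicle wells, and values are medians of duplicate plates.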

NCI-H1651 = tested on: NCI-H1651
Method in brief: as §1

NCI-H647 = tested on: NCI-H647
Method in brief: as §1

H3255 = tested on: H3255
Method in brief: as §1

HCC-15 = tested on: HCC-15
Method in brief: as §1

NCI-H1755 = tested on: NCI-H1755
Method in brief: as §1

NCI-H727 = tested on: NCI-H727
Method in brief: as §1

NCI-H1437 = tested on: NCI-H1437
Method in brief: as §1

HCC-827 = tested on: HCC-827
Method in brief: as §1

NCI-H1650 = tested on: NCI-H1650
Method in brief: as §1

NCI-H2087 = tested on: NCI-H2087
Method in brief: as §1

COR-L23 = tested on: COR-L23
Method in brief: as §1

EPLC-272H = tested on: EPLC-272H
Method in brief: as §1

NCI-H1975 = tested on: NCI-H1975
Method in brief: as §1

NCI-H1792 = tested on: NCI-H1792
Method in brief: as §1

NCI-H1944 = tested on: NCI-H1944
Method in brief: as §1

COR-L 105 = tested on: COR-L 105
Method in brief: as §1

COCC1(CO)C(=O)C2CCN1CC2 (stereo not drawn) [PRIMA-1MET] + CC1(C)CCC(c2ccc(Cl)cc2)=C(CN2CCN(c3ccc(C(=O)NS(=O)(=O)c4ccc(N[C@H](CCN5CCOCC5)CSc5ccccc5)c(S(=O)(=O)C(F)(F)F)c4)cc3)CC2)C1 [Navitoclax] (partner 0.5 µM)
relative viability (NCI-H520; first compound 0.2 µM): 1.25 | relative viability (NCI-H520; first compound 0.6325 µM): 1.06 | relative viability (NCI-H520; first compound 6.325 µM): 1.17 | relative viability (NCI-H520; first compound 20 µM): 0.131 | relative viability (NCI-H1651; first compound 0.2 µM): 1.15 | relative viability (NCI-H1651; first compound 0.6325 µM): 1 | relative viability (NCI-H1651; first compound 2 µM): 0.918 | relative viability (NCI-H1651; first compound 6.325 µM): 1.19 | relative viability (NCI-H1651; first compound 20 µM): 0.974 | relative viability (NCI-H647; first compound 0.2 µM): 1.15 | relative viability (NCI-H647; first compound 0.6325 µM): 1 | relative viability (NCI-H647; first compound 2 µM): 0.889 | relative viability (NCI-H647; first compound 6.325 µM): 1.24 | relative viability (NCI-H647; first compound 20 µM): 0.909 | relative viability (H3255; first compound 0.2 µM): 0.557 | relative viability (H3255; first compound 0.6325 µM): 0.522 | relative viability (H3255; first compound 2 µM): 0.515 | relative viability (H3255; first compound 6.325 µM): 0.544 | relative viability (H3255; first compound 20 µM): 0.354 | relative viability (HCC-15; first compound 0.2 µM): 0.772 | relative viability (HCC-15; first compound 0.6325 µM): 0.686 | relative viability (HCC-15; first compound 2 µM): 0.694 | relative viability (HCC-15; first compound 6.325 µM): 0.713 | relative viability (HCC-15; first compound 20 µM): 0.455 | relative viability (NCI-H1755; first compound 0.2 µM): 1.07 | relative viability (NCI-H1755; first compound 0.6325 µM): 1.01 | relative viability (NCI-H1755; first compound 2 µM): 0.535 | relative viability (NCI-H1755; first compound 6.325 µM): 0.953 | relative viability (NCI-H1755; first compound 20 µM): 1.05 | relative viability (NCI-H727; first compound 0.2 µM): 0.54 | relative viability (NCI-H727; first compound 0.6325 µM): 0.41 | relative viability (NCI-H727; first compound 2 µM): 0.398 | relative viability (NCI-H727; first compound 6.325 µM): 0.311 | relative viability (NCI-H727; first compound 20 µM): 0.105 | relative viability (NCI-H1437; first compound 0.2 µM): 1.14 | relative viability (NCI-H1437; first compound 0.6325 µM): 1.05 | relative viability (NCI-H1437; first compound 2 µM): 1.08 | relative viability (NCI-H1437; first compound 6.325 µM): 1.14 | relative viability (NCI-H1437; first compound 20 µM): 0.968 | relative viability (HCC-827; first compound 0.2 µM): 1.01 | relative viability (HCC-827; first compound 0.6325 µM): 0.9 | relative viability (HCC-827; first compound 2 µM): 0.721 | relative viability (HCC-827; first compound 6.325 µM): 1 | relative viability (HCC-827; first compound 20 µM): 1.03 | relative viability (NCI-H1650; first compound 0.2 µM): 1.39 | relative viability (NCI-H1650; first compound 0.6325 µM): 1.14 | relative viability (NCI-H1650; first compound 2 µM): 1.32 | relative viability (NCI-H1650; first compound 6.325 µM): 1.33 | relative viability (NCI-H1650; first compound 20 µM): 0.888 | relative viability (NCI-H2087; first compound 0.2 µM): 1.03 | relative viability (NCI-H2087; first compound 0.6325 µM): 0.901 | relative viability (NCI-H2087; first compound 2 µM): 1.22 | relative viability (NCI-H2087; first compound 6.325 µM): 1.2 | relative viability (NCI-H2087; first compound 20 µM): 0.842 | relative viability (COR-L23; first compound 0.2 µM): 1.1 | relative viability (COR-L23; first compound 0.6325 µM): 0.93 | relative viability (COR-L23; first compound 2 µM): 1.06 | relative viability (COR-L23; first compound 6.325 µM): 1.03 | relative viability (COR-L23; first compound 20 µM): 0.023 | relative viability (EPLC-272H; first compound 0.2 µM): 1.33 | relative viability (EPLC-272H; first compound 0.6325 µM): 0.933 | relative viability (EPLC-272H; first compound 2 µM): 1.15 | relative viability (EPLC-272H; first compound 6.325 µM): 1.15 | relative viability (EPLC-272H; first compound 20 µM): 0.989 | relative viability (NCI-H1975; first compound 0.2 µM): 1.13 | relative viability (NCI-H1975; first compound 0.6325 µM): 1.03 | relative viability (NCI-H1975; first compound 2 µM): 1.12 | relative viability (NCI-H1975; first compound 6.325 µM): 1.21 | relative viability (NCI-H1975; first compound 20 µM): 0.96 | relative viability (NCI-H1792; first compound 0.2 µM): 0.525 | relative viability (NCI-H1792; first compound 0.6325 µM): 0.48 | relative viability (NCI-H1792; first compound 2 µM): 0.589 | relative viability (NCI-H1792; first compound 6.325 µM): 0.617 | relative viability (NCI-H1792; first compound 20 µM): 0.544 | relative viability (NCI-H1944; first compound 0.2 µM): 1.18 | relative viability (NCI-H1944; first compound 0.6325 µM): 0.892 | relative viability (NCI-H1944; first compound 6.325 µM): 1.02 | relative viability (NCI-H1944; first compound 20 µM): 1.08 | relative viability (COR-L 105; first compound 0.2 µM): 0.826 | relative viability (COR-L 105; first compound 0.6325 µM): 0.513 | relative viability (COR-L 105; first compound 2 µM): 0.761 | relative viability (COR-L 105; first compound 6.325 µM): 0.671 | relative viability (COR-L 105; first compound 20 µM): 0.211
